Assay: Relaxivity measurement, 1.0 T MRI scanner
Assay type: physicochemical
Details: room temperature
Experimental: A relaxivity study was performed by evaluating the longitudinal relaxation time T1 of HP—Au—Gd nanoparticles at different Gd concentrations at room temperature by using a 1.0 T-MRI scanner (ICON, Bruker Biospin, Ettlingen, Germany). The commercially available gadolinium contrast agent (Gadopentetic acid or Gd-DTPA) was used as the positive control. The contrast agents were initially placed into syringes and set in the center of the volume coil. The sample temperature was maintained at room temperature. By using the MRI scanner, horizontal single-slice T1-weighted MR images were acquired (spin echo, TR/TE=400/10 ms, slice thickness=2.0 mm, matrix=256×256, field of view (FOV)=38.4×38.4 mm, number of averages (NA)=10, number of slices=1). Horizontal single-slice inversion-recovery MRI was done to calculate the T1 and r1 by using rapid acquisition with relaxation enhancement (RARE) acquisition (TR=20,000 ms, TE=17 ms, inversion time=45, 100, 200, 400, 800, 1600, 3200, 6400, 8000, 10000, 12000 ms, matrix size=64×64, FOV=38.4×38.4 mm, slice thickness=2.0 mm, RARE factor=4, and NA=1). Then, the r1 relaxivities were calculated by using the following equation: r1=(1/T1-1/T1(0))/[Gd] where [Gd] is the concentration of Gd, and 1/T1(0) and 1/T1 are the longitudinal relaxation rate without and with paramagnetic species, respectively.

A r1 relaxivity of 3.26 mM⁻¹ s⁻¹ was found for `CNC[C@H](O)[C@@H](O)[C@H](O)[C@H](O)CO.CNC[C@H](O)[C@@H](O)[C@H](O)[C@H](O)CO.O=C([O-])CN(CCN(CC(=O)[O-])CC(=O)O)CCN(CC(=O)[O-])CC(=O)O.[Gd+3]` [Gd-DTPA, Gadopentetic acid] in this work.

From patent publication US20230090223A1, “NANOPARTICLES FOR USE IN THE TREATMENT AND DIAGNOSIS OF CNS DISORDERS” (priority 2020, published 2023)
